The values that follow come from PubChem BioAssay (NCI).

The structures appear in SMILES notation.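 Briefly, cells in 96-well plates were exposed to five compound concentrations for 48 h, and endpoints were estimated by linear interpolation. GI50 is the concentration that inhibits growth by half. TGI marks complete inhibition of growth.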

Some test systems named below: EKVX NSCLC; MOLT-4 leukemia; NCI-H23 lung; ACHN renal; LOX IMVI melanoma; UACC-257 melanoma; A498 renal; UO-31 renal; BT-549 breast; SK-MEL-2 melanoma.
Holding throughout (assay): NCI-60 cell line screen, 48 h

For the compound `CC(=O)O[C@H]1C(=O)[C@@]2(C)[C@H]([C@H](OC(=O)c3ccccc3)[C@]3(O)C[C@H](OC(=O)[C@H](OC(=O)CCC(=O)OC4CCC(S/N=C(N)/N=C(\N)N(C)C)CC4)[C@@H](NC(=O)c4ccccc4)c4ccccc4)C(C)=C1C3(C)C)[C@]1(OC(C)=O)CO[C@@H]1C[C@@H]2O` (stereo partly specified), the GI50 in the experiment with EKVX NSCLC was 0.0269 µM; with MOLT-4 leukemia, 0.0154 µM; in the experiment with NCI-H23 lung, 0.0166 µM; with ACHN renal, 0.11 µM; in the experiment with LOX IMVI melanoma, 0.00748 µM; in the experiment on UACC-257 melanoma, 0.0846 µM. Besides, the GI50 in the experiment with A498 renal is 0.0148 µM; in the experiment with UO-31 renal, 0.619 µM; in the experiment with BT-549 breast, 0.0219 µM. Besides, the TGI in the experiment with EKVX NSCLC, in the experiment on MOLT-4 leukemia, in the experiment with NCI-H23 lung, in the experiment with ACHN renal, with LOX IMVI melanoma and in the experiment on UACC-257 melanoma was over 50 µM each time. For the same compound, the TGI in the experiment with A498 renal, with UO-31 renal and in the experiment on BT-549 breast was over 50 µM throughout.
As for `C[C@@H](Oc1cc(-c2cnn(C3CC4(CCNCC4)C3)c2)cnc1N)c1c(F)ccc(Cl)c1Cl`, the GI50 in the experiment with MOLT-4 leukemia is 1.29 µM; with NCI-H23 lung, 1.09 µM; with ACHN renal it was 2 µM; in the experiment on LOX IMVI melanoma, 1.22 µM; in the experiment on SK-MEL-2 melanoma, 1.93 µM; in the experiment on UACC-257 melanoma, 1.47 µM. Also, the GI50 in the experiment with A498 renal is 0.488 µM; in the experiment with UO-31 renal, 1.89 µM; in the experiment on BT-549 breast, 1.75 µM. For the same compound, the TGI with MOLT-4 leukemia was 5.82 µM; in the experiment on NCI-H23 lung, 11.4 µM; in the experiment with ACHN renal, 7.54 µM; in the experiment on LOX IMVI melanoma, 2.56 µM; in the experiment on SK-MEL-2 melanoma, 3.74 µM; with UACC-257 melanoma, 2.99 µM. The TGI in the experiment with A498 renal was determined as 2.35 µM; with UO-31 renal, 4.28 µM; with BT-549 breast, 3.78 µM.
`O=C(CSc1nc2sc3c(c2c(=O)n1-c1ccccc1)CCCCC3)N/N=C/c1ccc(F)cc1`: the GI50 in the experiment on EKVX NSCLC was 11.3 µM; with MOLT-4 leukemia, 9.09 µM; with NCI-H23 lung, 3.29 µM; in the experiment with ACHN renal, 4.76 µM; in the experiment with LOX IMVI melanoma, 2.35 µM; in the experiment with SK-MEL-2 melanoma, 14.4 µM. Also, the GI50 in the experiment with UACC-257 melanoma was 7.54 µM; with UO-31 renal, 3.77 µM; with BT-549 breast it was 3.66 µM. Moreover, the TGI in the experiment with EKVX NSCLC was 41.7 µM; in the experiment on MOLT-4 leukemia, over 100 µM; with NCI-H23 lung it was 13.9 µM; with ACHN renal, 34.6 µM; in the experiment with LOX IMVI melanoma, 14.8 µM; in the experiment on SK-MEL-2 melanoma, 28.8 µM. The TGI is over 100 µM in the experiment with UACC-257 melanoma, over 100 µM in the experiment on UO-31 renal and 17.8 µM with BT-549 breast.
As for `COc1cc(-c2ccc(-[n+]3nc(-c4ccc([N+](=O)[O-])cc4)nn3-c3ccc([N+](=O)[O-])cc3)c(OC)c2)ccc1-[n+]1nc(-c2ccc([N+](=O)[O-])cc2)nn1-c1ccc([N+](=O)[O-])cc1`, the GI50 in the experiment on MOLT-4 leukemia was 2.98 µM; in the experiment on NCI-H23 lung, 3.76 µM; in the experiment with ACHN renal it was 4.16 µM; with LOX IMVI melanoma, 0.347 µM; in the experiment with SK-MEL-2 melanoma it was 4.29 µM; with UACC-257 melanoma, 2.83 µM. Besides, the GI50 with A498 renal was 2.99 µM; in the experiment with UO-31 renal, 6.28 µM; in the experiment with BT-549 breast, 6.21 µM. Moreover, the TGI in the experiment on MOLT-4 leukemia is over 82 µM; in the experiment on NCI-H23 lung, 47.1 µM; in the experiment with ACHN renal, 19.2 µM; in the experiment with LOX IMVI melanoma, 10.1 µM; with SK-MEL-2 melanoma, 17.9 µM; in the experiment on UACC-257 melanoma, 12 µM. Further, the TGI with A498 renal is 13.9 µM; in the experiment on UO-31 renal, 27.8 µM; with BT-549 breast, 70.8 µM.
As to `O=C(Nc1nc(-c2ccc(Cl)cc2)cs1)c1ccc(O)c(O)c1`, the GI50 in the experiment with MOLT-4 leukemia was 2.48 µM; in the experiment with NCI-H23 lung, 4.27 µM; in the experiment on ACHN renal, 3.24 µM; with LOX IMVI melanoma, 4.26 µM; with UACC-257 melanoma, 6.29 µM; with A498 renal, 3.37 µM. Besides, the GI50 in the experiment on UO-31 renal was 2.29 µM; in the experiment on BT-549 breast, 3.49 µM. The TGI came to 12.3 µM in the experiment with MOLT-4 leukemia; 20.3 µM in the experiment with NCI-H23 lung; 12.1 µM in the experiment on ACHN renal; 15.7 µM in the experiment with LOX IMVI melanoma; 24.3 µM with UACC-257 melanoma; 15.5 µM in the experiment on A498 renal. Besides, the TGI in the experiment with UO-31 renal is 10.6 µM; in the experiment on BT-549 breast, 17.9 µM.
`Cc1cc(Nc2nc(N3CCOCC3)nc3ccccc23)n[nH]1`: the GI50 with MOLT-4 leukemia was 15 µM; in the experiment with ACHN renal, 2.03 µM; in the experiment with LOX IMVI melanoma, 4.35 µM; in the experiment with SK-MEL-2 melanoma, 5.2 µM; in the experiment on UACC-257 melanoma, 87.7 µM; with A498 renal it was 1.01 µM. Further, the figures for the GI50 with UO-31 renal and in the experiment on BT-549 breast were 1.38 µM and 7.88 µM, respectively. Besides, the TGI is 77.9 µM in the experiment with MOLT-4 leukemia; 18.5 µM in the experiment with ACHN renal; 21.2 µM in the experiment on LOX IMVI melanoma; over 100 µM in the experiment on SK-MEL-2 melanoma; over 100 µM in the experiment with UACC-257 melanoma; 5.33 µM in the experiment on A498 renal. For the same compound, the TGI in the experiment on UO-31 renal amounted to 11.2 µM; in the experiment on BT-549 breast, 46.7 µM.
Consider `O=C1NC(=O)[C@H]2C3C=CC([C@@H]12)[C@@H]1C(=O)NC(=O)[C@H]31`, for which the TGI in the experiment on EKVX NSCLC, in the experiment on MOLT-4 leukemia, in the experiment on NCI-H23 lung, with ACHN renal, in the experiment on LOX IMVI melanoma and in the experiment on SK-MEL-2 melanoma was over 100 µM throughout. The TGI in the experiment with UACC-257 melanoma, in the experiment on UO-31 renal and in the experiment with BT-549 breast was over 100 µM throughout.
On to `O=C(Nc1cccc(-c2nc3ccccc3[nH]2)c1)c1cccc(NC(=O)c2ccco2)c1`, for which the GI50 was 2.96 µM with MOLT-4 leukemia; 2.15 µM with NCI-H23 lung; 1.68 µM in the experiment on ACHN renal; 1.93 µM with LOX IMVI melanoma; 5.33 µM with SK-MEL-2 melanoma; 2.3 µM in the experiment with UACC-257 melanoma. For the same compound, the GI50 is 4.33 µM in the experiment on A498 renal, 3.24 µM with UO-31 renal and 1.85 µM with BT-549 breast. The TGI with MOLT-4 leukemia came out at 12 µM; in the experiment with NCI-H23 lung, 4.94 µM; with ACHN renal, 3.17 µM; with LOX IMVI melanoma it was 3.88 µM; in the experiment on SK-MEL-2 melanoma it was 16.9 µM; in the experiment on UACC-257 melanoma, 5.34 µM. Also, the TGI in the experiment with A498 renal is 18.3 µM; in the experiment on UO-31 renal it was 11.8 µM; with BT-549 breast, 3.92 µM.
